Here are results for 17 compounds from patent US6028182A, “Methylphosphonic acid esters, processes for their preparation, and their use” (Hoechst Aktiengesellschaft, priority 1993, dated 2000).

Values after ≈ are worked out from the molar mass of the structure shown. Like-named read-outs stand apart in the source and are kept apart here. Where only a bound is given, the exact number is not on record here.

Data set [1] is described as follows: Toxicity (cytotoxic action) in human T lymphocytes. It counts as cell-based. The conditions noted are these: cem t lymphocytes. How it is done: (§1) In-vitro HIV tests were carried out with the dinucleoside α-hydroxymethylarylphosphonates 1-3. As a test system human T lymphocytes (CEM/O) were used. The compounds were additionally tested in a thymidine kinase-deficient T-lymphocyte strain (CEM/TK^-). The CEM/O cells were infected both with HIV-1 and with HIV-2. Before the tests, it was ensured that the compounds to be tested were free of free nucleoside (max. 0.5% HPLC) .

Data set [2] has as its system HIV-2. The experiment in a line: In-vitro anti HIV test, HIV-2, human T lymphocytes CEM/O. Format: cell-based, HIV-2 in human T lymphocytes (CEM/O). The conditions noted are these: Human immunodeficiency virus 2, T-lymphocyte, read-out: Antiviral activity EC50 CEM/O HIV-2. How it is done: as §1
For data set [3], the system named is HIV-1. The data set can be described thus: In-vitro anti HIV test, HIV-1, human T lymphocytes CEM/O. Format: cell-based, HIV-1 in human T lymphocytes (CEM/O). Conditions: Human immunodeficiency virus 1, T-lymphocyte, read-out: Antiviral activity EC50 CEM/O HIV-1. How it is done: as §1
For data set [4], the system named is HIV-2. The experiment in a line: In-vitro anti HIV test, HIV-2, thymidine kinase-deficient T-lymphocyte strain CEM/TK^-. It counts as cell-based, HIV-2 in human T lymphocytes (CEM/TK^-). The conditions noted are these: Human immunodeficiency virus 2, CEM-TK(-), read-out: Antiviral activity EC50 CEM/TK^- HIV-2. How it is done:
as §1

As for `Cc1cn([C@H]2CC[C@@H](COP(=O)(OC[C@@H]3CC[C@H](n4cc(C)c(=O)[nH]c4=O)O3)C(O)c3ccc(N(C)C)cc3)O2)c(=O)[nH]c1=O` (some centres unmarked) [Compound 1a, bis(5'-O-2',3'-dideoxythymidine) hydroxy(4-dimethylaminophenyl)methylphosphonate], the CC50 (commonly the concentration giving 50% cytotoxicity) in data set [1] (read-out: Toxicity CC50) was above 100 µg/mL. Besides, the EC50 in data set [2] (HIV-2, CEM/O cells) was 7 ± 4.24 µg/mL (≈ 10.8 µM); in data set [3] (HIV-1, CEM/O cells), 3.25 ± 1.06 µg/mL (≈ 5.02 µM); in data set [4], above 100 µg/mL.

Regarding `COc1ccc(C(O)P(=O)(OC[C@@H]2CC[C@H](n3cc(C)c(=O)[nH]c3=O)O2)OC[C@@H]2CC[C@H](n3cc(C)c(=O)[nH]c3=O)O2)cc1` (some centres unmarked) [Compound 1b, bis(5'-O-2',3'-dideoxythymidine) hydroxy(4-methoxyphenyl)methylphosphonate], the CC50 in data set [1] (read-out: Toxicity CC50) was above 20 µg/mL. The EC50 in data set [2] (HIV-2, CEM/O cells) was 0.55 ± 0.07 µg/mL (≈ 0.867 µM); in data set [3] (HIV-1, CEM/O cells), 0.5 µg/mL (≈ 0.788 µM); in data set [4], above 20 µg/mL.

Regarding `Cc1ccc(C(O)P(=O)(OC[C@@H]2CC[C@H](n3cc(C)c(=O)[nH]c3=O)O2)OC[C@@H]2CC[C@H](n3cc(C)c(=O)[nH]c3=O)O2)cc1` (some centres unmarked) [Compound 1c, bis(5'-O-2',3'-dideoxythymidine) hydroxy(4-methylphenyl)methylphosphonate], in data set [1] (read-out: Toxicity CC50), the CC50 is above 100 µg/mL. For the same compound, the EC50 in data set [2] (HIV-2, CEM/O cells) was 10 µg/mL (≈ 16.2 µM); in data set [3] (HIV-1, CEM/O cells), 3.25 ± 1.06 µg/mL (≈ 5.25 µM); in data set [4], above 100 µg/mL.

Take `Cc1cn([C@H]2CC[C@@H](COP(=O)(OC[C@@H]3CC[C@H](n4cc(C)c(=O)[nH]c4=O)O3)C(O)c3ccccc3)O2)c(=O)[nH]c1=O` (some centres unmarked) [Compound 1d, bis(5'-O-2',3'-dideoxythymidine) hydroxy(phenyl)methylphosphonate]: the CC50 in data set [1] (read-out: Toxicity CC50) is above 100 µg/mL. Moreover, the EC50 in data set [2] (HIV-2, CEM/O cells) was 13.3 ± 2.9 µg/mL (≈ 22 µM); in data set [3] (HIV-1, CEM/O cells), 2.93 ± 1.85 µg/mL (≈ 4.85 µM); in data set [4], above 100 µg/mL.

For the compound `Cc1cn([C@H]2CC[C@@H](COP(=O)(OC[C@@H]3CC[C@H](n4cc(C)c(=O)[nH]c4=O)O3)C(O)c3ccc(Cl)cc3)O2)c(=O)[nH]c1=O` (some centres unmarked) [Compound 1e, bis(5'-O-2',3'-dideoxythymidine) hydroxy(4-chlorophenyl)methylphosphonate], in data set [1] (read-out: Toxicity CC50), the CC50 was above 100 µg/mL. The EC50 in data set [2] (HIV-2, CEM/O cells) was 4 µg/mL (≈ 6.26 µM); in data set [3] (HIV-1, CEM/O cells), 4 µg/mL (≈ 6.26 µM); in data set [4], above 100 µg/mL.

On to `Cc1cn([C@H]2CC[C@@H](COP(=O)(OC[C@@H]3CC[C@H](n4cc(C)c(=O)[nH]c4=O)O3)C(O)c3c(Cl)cccc3Cl)O2)c(=O)[nH]c1=O` (some centres unmarked) [Compound 1f, bis(5'-O-2',3'-dideoxythymidine) hydroxy(2,6-dichlorophenyl)methylphosphonate], for which the CC50 in data set [1] (read-out: Toxicity CC50) is above 20 µg/mL. Also, the EC50 was 2 µg/mL (≈ 2.97 µM) in data set [2], 1.4 ± 0.85 µg/mL (≈ 2.08 µM) in data set [3] and above 20 µg/mL in data set [4].

For the compound `Cc1cn([C@H]2CC[C@@H](COP(=O)(OC[C@@H]3CC[C@H](n4cc(C)c(=O)[nH]c4=O)O3)C(O)c3ccc(C#N)cc3)O2)c(=O)[nH]c1=O` (some centres unmarked) [Compound 1g, bis(5'-O-2',3'-dideoxythymidine) hydroxy(4-cyanophenyl)methylphosphonate], in data set [1] (read-out: Toxicity CC50), the CC50 was above 100 µg/mL. The EC50 was 7.7 ± 4.6 µg/mL (≈ 12.2 µM) in data set [2] (HIV-2, CEM/O cells); 3.93 ± 3.1 µg/mL (≈ 6.24 µM) in data set [3] (HIV-1, CEM/O cells); above 100 µg/mL in data set [4].

Turning to `Cc1cn([C@H]2CC[C@@H](COP(=O)(OC[C@@H]3CC[C@H](n4cc(C)c(=O)[nH]c4=O)O3)C(O)c3ccc([N+](=O)[O-])cc3)O2)c(=O)[nH]c1=O` (some centres unmarked) [Compound 1h, bis(5'-O-2',3'-dideoxythymidine) hydroxy(4-nitrophenyl)methylphosphonate], the CC50 in data set [1] (read-out: Toxicity CC50) was above 100 µg/mL. Also, the EC50 in data set [2] (HIV-2, CEM/O cells) is 3 ± 1.41 µg/mL (≈ 4.62 µM); in data set [3] (HIV-1, CEM/O cells), 2.25 ± 0.35 µg/mL (≈ 3.46 µM); in data set [4], above 100 µg/mL.

Take `Cc1cn([C@H]2CC[C@@H](COP(=O)(OC[C@@H]3CC[C@H](n4cc(C)c(=O)[nH]c4=O)O3)C(O)c3ccc([N+](=O)[O-])cc3[N+](=O)[O-])O2)c(=O)[nH]c1=O` (some centres unmarked) [Compound 1j, bis(5'-O-2',3'-dideoxythymidine) hydroxy(2,4-dinitrophenyl)methylphosphonate]: the CC50 in data set [1] is above 100 µg/mL. Besides, the EC50 in data set [2] (HIV-2, CEM/O cells) is 3.5 ± 0.71 µg/mL (≈ 5.04 µM); in data set [3] (HIV-1, CEM/O cells), 2 µg/mL (≈ 2.88 µM); in data set [4] it was above 100 µg/mL.

Regarding `COc1ccc(C(O)P(=O)(OC[C@@H]2C=C[C@H](n3cc(C)c(=O)[nH]c3=O)O2)OC[C@@H]2C=C[C@H](n3cc(C)c(=O)[nH]c3=O)O2)cc1` (some centres unmarked) [Compound 2b, bis(5'-O-2',3'-dideoxy-2',3'-didehydrothymidine)hydroxy(4-methoxyphenyl)methylphosphonate], the CC50 in data set [1] (read-out: Toxicity CC50) was above 20 µg/mL. The EC50 in data set [2] (HIV-2, CEM/O cells) is 0.12 ± 0.06 µg/mL (≈ 0.19 µM); in data set [3] (HIV-1, CEM/O cells), 0.1 ± 0.065 µg/mL (≈ 0.159 µM); in data set [4] it was above 100 µg/mL.

Consider `Cc1ccc(C(O)P(=O)(OC[C@@H]2C=C[C@H](n3cc(C)c(=O)[nH]c3=O)O2)OC[C@@H]2C=C[C@H](n3cc(C)c(=O)[nH]c3=O)O2)cc1` (some centres unmarked) [Compound 2c, bis(5'-O-2',3'-dideoxy-2',3'-didehydrothymidine)hydroxy(4-methylphenyl)methylphosphonate], for which the CC50 in data set [1] (read-out: Toxicity CC50) was above 20 µg/mL. Also, the EC50 in data set [2] (HIV-2, CEM/O cells) was 0.33 ± 0.24 µg/mL (≈ 0.537 µM); in data set [3] (HIV-1, CEM/O cells), 0.12 ± 0.064 µg/mL (≈ 0.195 µM); in data set [4], above 100 µg/mL.

For `Cc1cn([C@H]2C=C[C@@H](COP(=O)(OC[C@@H]3C=C[C@H](n4cc(C)c(=O)[nH]c4=O)O3)C(O)c3ccccc3)O2)c(=O)[nH]c1=O` (some centres unmarked) [Compound 2d, bis(5'-O-2',3'-dideoxy-2',3'-didehydrothymidine)hydroxy(phenyl)methylphosphonate], the CC50 in data set [1] (read-out: Toxicity CC50) was above 100 µg/mL. Also, the EC50 in data set [2] (HIV-2, CEM/O cells) was 0.19 ± 0.19 µg/mL (≈ 0.316 µM); in data set [3] (HIV-1, CEM/O cells), 0.16 µg/mL (≈ 0.266 µM); in data set [4], above 100 µg/mL.

In the case of `Cc1cn([C@H]2C=C[C@@H](COP(=O)(OC[C@@H]3C=C[C@H](n4cc(C)c(=O)[nH]c4=O)O3)C(O)c3ccc(Cl)cc3)O2)c(=O)[nH]c1=O` (some centres unmarked) [Compound 2e, bis(5'-O-2',3'-dideoxy-2',3'-didehydrothymidine)hydroxy(4-chlorophenyl)methylphosphonate], the CC50 in data set [1] (read-out: Toxicity CC50) is above 100 µg/mL. Moreover, the EC50 in data set [2] (HIV-2, CEM/O cells) is 0.12 ± 0.06 µg/mL (≈ 0.189 µM); in data set [3] (HIV-1, CEM/O cells), 0.1 ± 0.05 µg/mL (≈ 0.157 µM); in data set [4], above 100 µg/mL.

Regarding `Cc1cn([C@H]2C=C[C@@H](COP(=O)(OC[C@@H]3C=C[C@H](n4cc(C)c(=O)[nH]c4=O)O3)C(O)c3c(Cl)cccc3Cl)O2)c(=O)[nH]c1=O` (some centres unmarked) [Compound 2f, bis(5'-O-2',3'-dideoxy-2',3'-didehydrothymidine)hydroxy(2,6-dichlorophenyl)methylphosphonate], the CC50 in data set [1] (read-out: Toxicity CC50) was above 100 µg/mL. In addition, the EC50 in data set [2] (HIV-2, CEM/O cells) is 0.12 ± 0.06 µg/mL (≈ 0.179 µM); in data set [3] (HIV-1, CEM/O cells), 0.056 ± 0.034 µg/mL (≈ 0.0837 µM); in data set [4], above 20 µg/mL.

With `Cc1cn([C@H]2C=C[C@@H](COP(=O)(OC[C@@H]3C=C[C@H](n4cc(C)c(=O)[nH]c4=O)O3)C(O)c3ccc(C#N)cc3)O2)c(=O)[nH]c1=O` (some centres unmarked) [Compound 2g, bis(5'-O-2',3'-dideoxy-2',3'-didehydrothymidine)hydroxy(4-cyanophenyl)methylphosphonate], the CC50 in data set [1] (read-out: Toxicity CC50) is above 100 µg/mL. Besides, the EC50 was 0.33 ± 0.24 µg/mL (≈ 0.528 µM) in data set [2] (HIV-2, CEM/O cells); 0.091 ± 0.065 µg/mL (≈ 0.145 µM) in data set [3] (HIV-1, CEM/O cells); above 100 µg/mL in data set [4].

On to `Cc1cn([C@H]2C=C[C@@H](COP(=O)(OC[C@@H]3C=C[C@H](n4cc(C)c(=O)[nH]c4=O)O3)C(O)c3ccc([N+](=O)[O-])cc3)O2)c(=O)[nH]c1=O` (some centres unmarked) [Compound 2h, bis(5'-O-2',3'-dideoxy-2',3'-didehydrothymidine)hydroxy(4-nitrophenyl)methylphosphonate], for which the CC50 in data set [1] (read-out: Toxicity CC50) is above 100 µg/mL. The EC50 in data set [2] (HIV-2, CEM/O cells) is 0.12 ± 0.06 µg/mL (≈ 0.186 µM); in data set [3] (HIV-1, CEM/O cells), 0.066 ± 0.048 µg/mL (≈ 0.102 µM); in data set [4] it was above 100 µg/mL.

Regarding `Cc1cn([C@H]2C=C[C@@H](COP(=O)(OC[C@@H]3C=C[C@H](n4cc(C)c(=O)[nH]c4=O)O3)C(O)c3ccc([N+](=O)[O-])cc3[N+](=O)[O-])O2)c(=O)[nH]c1=O` (some centres unmarked) [Compound 2j, bis(5'-O-2',3'-dideoxy-2',3'-didehydrothymidine)hydroxy(2,4-dinitrophenyl)methylphosphonate], the CC50 in data set [1] is above 100 µg/mL. Further, the EC50 in data set [2] (HIV-2, CEM/O cells) was 0.33 ± 0.24 µg/mL (≈ 0.478 µM); in data set [3] (HIV-1, CEM/O cells) it was 0.16 µg/mL (≈ 0.232 µM); in data set [4], above 100 µg/mL.
